As usually defined, the MIC is the lowest concentration that inhibits growth of the organism. The IC50 is the concentration that inhibits the measured activity by half.

≈ marks a conversion by molar mass, not a printed value. Like-named read-outs stand apart in the source and are kept apart here. Where only a bound is given, the exact number is not on record here.

The source of these data is patent US12673025B2, “Pegylated liposomes and uses thereof” (LT BIOPHARMA INC., priority 2024, dated 2026).

The test system of assay [1] is Vancomycin-Resistant Staphylococcus aureus (VRSA01). The experiment in a line: MIC broth microdilution assay. The format is cell-based. As for the experimental part:
(§1) For the purpose of antimicrobial activity evaluation of liposome encapsulated nosiheptide, bacteria strain was cultivated in tryptic soy broth (Difco, Becton, Dickinson, Sparks, MD) or brain heart infusion broth (Difco, Becton, Dickinson, Sparks, MD) at 37° C. for 16˜18 hours to the stationary phase. After that, 1000 μl of inoculums were treated to 15 ml tryptic soy broth medium and incubated at 37° C. for 3˜4 hours. Bacteria counts were determined to 5×10^5 CFU/ml for antimicrobial activity via absorbance value of OD600 (1 OD600=1×10^8 CFU/ml) by spectrophotometer. (Ultraspec 2100 Pro, UV/Visible spectrophotometer, Biochrom, Massachusetts, USA)
(§2) The minimum inhibitory concentration values of peptides and liposome encapsulated peptides were evaluated by standard broth microdilution assay which was referred to the guideline of the Clinical and Laboratory Standards Institute (CLSI) (M27-A4., C.a.L.S.I.a.s.t.e.C.d., Reference method for broth dilution antifungal susceptibility testing of yeasts. Clinical and Laboratory Standards Institute, Wayne, PA., 2017). MIC assays were carried out with initial bacterial inoculum of 5×10^5 colony forming units (CFU/ml) in suitable medium. Peptides and liposome encapsulated peptides were added to polystyrene 96-well plates with serial dilution. Vancomycin-Resistant Staphylococcus aureus (VRSA01), Staphylococcus aureus (ATCC29213), Staphylococcus aureus (ATCC33591), Pseudomonas aeruginosa (ATCC278533) were cultivated in TSB broth. MICs was preliminarily defined as the lowest concentration of peptides which inhibited the 90% visible growth of bacteria.
(§3) The concentration-diluted peptide was treated 1 μl in 96-well plates. Subsequently, 99 μl medium which containing 5×10^5 CFU/ml bacteria inoculum were loaded individually in each wells, the serial-diluted concentration of peptide were from 8 to 0.0625 μg/ml. Evaluation of bacterial growth were performed by measuring the OD at 600 nm in a microplate reader (TECAN, Sunrise™) over 16 hours at 37° C. Medium-treated wells were used as the control, and all experiments were carried out in triplicate.

The test system of assay [2] is Pseudomonas aeruginosa ATCC 27853. The experiment in a line: MIC broth microdilution assay. In kind it is cell-based. To be noted: for MIC: ATCC27853; for antibacterial activity: Pseudomonas aeruginosa (ATCC278533). As for the experimental part: as §1, §2, §3
For orientation: Dilution methods test growth across graded concentrations, often in twofold steps.

The test system of assay [3] is Staphylococcus aureus (ATCC29213). The experiment in a line: MIC broth microdilution assay. The format is cell-based. As for the experimental part:
as §1, §2, §3

Assay [4] relates to Staphylococcus aureus (ATCC33591). The experiment in a line: MIC broth microdilution assay. The format is cell-based. As to the method:
as §1, §2, §3

The test system is the same in assay [5]. The experiment in a line: Murine model of i.v. S. aureus infection (survival). The format is in vivo, mice. To be noted: 20 mg/kg i.v. at 1 and 8 hours after infection. As to the method:
Establishment of murine injection model of was assessed to test in vivo efficacy of nosiheptide liposome. Eight-week-old female ICR mice (LASCO, Taipei, Taiwan) were injected i.v. with 1×10^9 CFU/ml of Staphylococcus aureus (ATCC33591) strain in PBS buffer (pH=7.42).

A further assay has as its system A549 cells. Nature of the assay: MTT cell viability assay. In kind it is cell-based. The conditions noted are these: Homo sapiens, A549 lung cancer cells, 24 h. As for the experimental part: (§4) The MTT assay was performed to determine cell viability. 5×10^3 cells per well with 100 μl cell medium were plated in 96-well plates, incubating for 24 hours. Then, the cell medium in plates was removed and each well was treated medium with free nosiheptide or liposome encapsulated nosiheptide in serial-diluted concentration from 3.125 to 50 μM. The medium with PBS buffer was regarded as the control group. After incubating 24 hours, the medium was removed and 100 μl medium-diluted 10% MTT was added in the 96 well plate. After incubation for 3 hours, the MTT solution was removed and the residual formazan crystal was dissolved with 100 μl DMSO (Dimethyl sulfoxide, Sigma Aldrich). The cell viability was determined by measuring the absorbance at 570 nm using ELISA Reader (TECAN, Sunrise™), and the data was calculated by the following formula: […]
(§5) The range of IC50 values was obtained by observing the curve, and all experiments were carried out in triplicate.
A general note: Tetrazolium dyes change colour on reduction, which living cells bring about.

The next assay concerns HFW cells. The experiment in a line: MTT cell viability assay. To be noted: HFW normal cells, 24 h. The format is cell-based. As to the method: as §4, §5
Assay [6] concerns Staphylococcus aureus (ATCC19636). Nature of the assay: MIC broth microdilution assay. In kind it is cell-based.
For another assay, the system named is VRSA 01. The experiment in a line: Time-kill analysis. The conditions noted are these: ¼×MIC. The format is cell-based, Staphylococcus aureus. As to the method:
The antimicrobial activity of nosiheptide and nosiheptide liposome against VRSA 01 were assessed by time-kill analysis. VRSA 01 was cultured in TSB medium overnight. After that, fresh TSB was inoculated for growth to mid-logarithmic phase. Bacteria was added at starting inoculum of 5×10^9 CFU/ml. Nosiheptide and nosiheptide liposome were added to final concentrations with 1×MIC and ¼×MIC, the value of MICs were determined in previous experiments. Bacteria with only medium was regarded as the grown control. The cultures were incubated in 37° C. shaking incubator, and aliquots were removed from each tube at 1, 2, 4, 8, 24 hours and serially diluted for CFU enumeration on TSA plates. To compare rates of antibiotic killing, the decline of viable bacteria (Log10 CFU/ml) was evaluated at the measured time points. Experiments were repeated independently in triplicate. The lower limit of detection for the colony counts was 2 log10 CFU/ml.

Regarding `C=C(NC(=O)c1csc(-c2nc3c(cc2O)-c2nc(cs2)C(=O)NC(C(C)O)C(=O)N/C(=C\C)c2nc(cs2)C(=O)NC2CC(O)C(=O)OCc4cccc5[nH]c(c(C)c45)C(=O)SCC(NC(=O)c4csc2n4)c2nc-3cs2)n1)C(N)=O` (stereo not shown) [Nosiheptide Free, Nosiheptide], the MIC in [1] (Vancomycin Resistant Staphylococcus aureus 01, read-out: MIC) was 0.0625 µg/mL (≈ 0.0511 µM); in [2] (Pseudomonas aeruginosa ATCC 27853, read-out: MIC), above 8 µg/mL; in [3] (read-out: MIC) it was 0.125 µg/mL (≈ 0.102 µM); in assay [4] (read-out: MIC), 0.0625 µg/mL (≈ 0.0511 µM); in assay [6] (read-out: MIC), above 8 µg/mL. The “antibacterial activity” value in assay [2] and in assay [6] was “no antibacterial activity” in each case. Besides, the survival rate in assay [5] (end of study (7 days)) worked out at 62.5%. Further, the “mice died during the first two days” value in [5] (first two days) is listed as “⅜”. Besides, the IC50 in the assay on A549 cells was 26.2 ± 5.26 µM; with HFW cells it was 28.3 ± 9.23 µM. In addition, the “time to 2-log kill” value in the assay with VRSA 01 amounted to 4 hours.

As for `C=C(NC(=O)C(=C)NC(=O)c1csc(C2=N[C@@H]3c4csc(n4)[C@H]4NC(=O)c5csc(n5)[C@H]([C@](C)(O)[C@@H](C)O)NC(=O)[C@H]5CSC(=N5)/C(=C/C)NC(=O)[C@H]([C@@H](C)O)NC(=O)c5csc(n5)[C@]3(CC2)NC(=O)[C@H](C)NC(=O)C(=C)NC(=O)[C@H](C)NC(=O)[C@H]([C@@H](C)CC)N[C@@H]2C=Cc3c([C@H](C)O)cc(nc3[C@H]2O)C(=O)O[C@@H]4C)n1)C(N)=O` [Thiostrepton Free, Thiostrepton], the minimum inhibitory concentration (MIC) in [1] (Staphylococcus aureus) was 0.25 µg/mL (≈ 0.15 µM); in assay [2] (Pseudomonas aeruginosa) it was above 8 µg/mL; in [3], 0.625 µg/mL (≈ 0.375 µM); in assay [4] it was 0.625 µg/mL (≈ 0.375 µM); in assay [6] it was above 8 µg/mL. Further, the “antibacterial activity” value in assay [2] and in assay [6] was “no antibacterial activity” in each case.
